For 13 molecules, DC50, Dmax and IC50 results are on record in US11384063B2, “Modulators of estrogen receptor proteolysis and associated methods of use” (Arvinas Operations, Inc., priority 2017, dated 2022).

SMILES strings stand for the structures. Where two headings read alike, the source gives them in different places. Some results are limits rather than exact numbers.

Assay [1] deals with T1, ERα (Homo sapiens, UniProt P03372).
T1 sequence (P03372 1-595): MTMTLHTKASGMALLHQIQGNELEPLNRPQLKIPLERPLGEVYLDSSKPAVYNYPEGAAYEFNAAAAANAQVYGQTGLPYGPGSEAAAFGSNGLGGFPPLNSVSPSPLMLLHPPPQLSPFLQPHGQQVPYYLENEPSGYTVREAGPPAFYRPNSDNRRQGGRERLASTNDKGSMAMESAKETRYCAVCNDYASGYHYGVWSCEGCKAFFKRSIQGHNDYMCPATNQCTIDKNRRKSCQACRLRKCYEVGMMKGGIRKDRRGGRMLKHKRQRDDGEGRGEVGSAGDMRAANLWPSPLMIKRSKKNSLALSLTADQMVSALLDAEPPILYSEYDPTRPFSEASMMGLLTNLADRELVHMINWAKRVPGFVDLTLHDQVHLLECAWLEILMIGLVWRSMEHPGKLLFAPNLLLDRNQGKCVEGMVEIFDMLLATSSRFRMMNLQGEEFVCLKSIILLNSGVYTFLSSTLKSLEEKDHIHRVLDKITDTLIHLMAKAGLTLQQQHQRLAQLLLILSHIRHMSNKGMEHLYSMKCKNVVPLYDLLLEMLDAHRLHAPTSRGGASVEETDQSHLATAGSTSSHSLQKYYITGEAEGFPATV
Description: Estrogen receptor-alpha (ERα) degradation assay in MCF7 cells using In-Cell Western assay. Format: cell-based. Details: assessed for their activity in degrading ERα in MCF-7 cells via western blot; endogenous in cells; host or cells: MCF7 cells. The settings on record: ER-alpha degradation in MCF7 cells, 5 days of incubation. How it is done:
Estrogen Receptor-Alpha (ERα) Degradation Assay Using in-Cell Western™ Assay for Table 5.
Degradation of ERα by claimed compounds were determined in MCF7 cells using an In-Cell Western™ assay. Briefly, MCF7 cells were plated in 96-well plates (2000 cells per well in 100 μl media) and incubated at 37° C. under an atmosphere of 5% CO2 in a humidified incubator overnight. One-hundred (100) μI of media containing test compound (at 2x concentration) was added to the appropriate wells to provide 11 serially decreasing concentrations (top final concentration, 1 μM then 3-fold less for the next 10 concentrations); a vehicle control (DMSO) was also added for each compound. For each experiment, all compounds were assayed on duplicate plates. Cells were then incubated for 3 or 5 days in the above-mentioned environment. The assay was terminated by removal of media, a single wash with ice-cold PBS and the addition of 50 μl paraformaldehyde (PFA: 4% in PBS). After 15 minutes in PFA at room temperature, the cells were permeabilized in Tris-phosphate-buffered saline with Tween (0.1%) (TBST) supplemented with Triton X-100 (0.5%) for 15 minutes. Cells were then blocked in BSA (TBST with BSA, 3%) for one hour. Primary antibodies for the detection of ERa (rabbit monoclonal, 1:1000, Cell Signaling Technology Catalog #8644) and tubulin (mouse monoclonal, 1:5000, Sigma Catalog #T6074) in TBST with BSA (3%) were added. The cells were incubated overnight at 4° C. The cells were then washed thrice with TBST at room temperature and then incubated with anti-rabbit and anti-mouse fluorescently-labelled secondary antibodies (IRDye®; LI-COR; Lincoln, Nebr.) in LI-COR blocking buffer (Catalog #927-50000) for one hour at room temperature. Following 3 washes with TBST, the buffer was removed and the plates were read on an Odyssey® infrared imaging system (LI-COR®, Lincoln, Nebr.) at 700 nm and 800 nm. Using commercial software (ImageStudio™; LI-COR, Lincoln, Nebr.), the staining intensity for ERa and tubulin in each well was quantified and exported for analysis. For each data point, ERa intensity was normalized to tubulin intensity and for each compound all normalized intensity values were normalized to the vehicle control. DC50 and Dmax values were determined following a 4-parameter IC50 curve fit using ACAS dose response module (McNeil & Co Inc.).

Assay [2] deals with T1, ERα. Put plainly: ERE luciferase reporter gene assay in T47D-KBluc cells (target engagement). Format: cell-based. More on the design: T47D human breast cancer cells stably transfected with estrogen responsive element/promoter/luciferase reporter gene; host or cells: T47D-KBluc cells. The conditions noted are these: 10% FBS, 24 hours, read-out: ER-α Luciferase IC50. A digest of the protocol:
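T47D-KBluc breast cancer cells, which carry a stable ERE-luciferase reporter, were grown in RPMI with 10% FBS (about 10 pM estrogen) and exposed to PROTACs for 24 h. The 12-point, 3-fold series ran from 300 nM to 2 pM. Luciferase was read after lysis, and IC50 was fitted from duplicates.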
A general note: A reporter such as luciferase makes a cellular process visible.

[3] abbreviates: Table 3 cereblon centric PROTACs.
[4] abbreviates: Table 1 cereblon centric PROTACs.

A word on the DC50: it is the concentration at which degradation of the target reaches its halfway point. A lower DC50 goes with degradation at low concentration. The term Dmax denotes the greatest extent of degradation seen. A low value points to a partial loss of target. For orientation: IC50 means the concentration that gives 50% inhibition. On ERα [1], `COc1ccc(-c2sc3cc(O)ccc3c2Oc2ccc(N3CCC(CN4CCN(c5ccc6c(c5)CN(C5CCC(=O)NC5=O)C6=O)CC4)CC3)cc2)cc1` (centres unmarked) [Compound 234, 3-[5-[4-[[1-[4-[6-hydroxy-2-(4-methoxyphenyl)benzothiophen-3-yl]-oxyphenyl]-4-piperidyl]methyl]piperazin-1-yl]-1-oxo-isoindolin-2-yl]piperidine-2,6-dione] had a DC50 of less than 1 nM and a Dmax of 50 to 75%. Besides, the IC50 on ERα [2] (setting [3]) came out at 0.65 nM.
`O=C1CCC(N2Cc3cc(NCCCOCCCOCCOc4ccc(Oc5c(-c6ccc(Br)cc6)sc6cc(O)ccc56)cc4)ccc3C2=O)C(=O)N1` (centres unmarked) [Compound 89, 3-[5-[3-[3-[2-[4-[2-(4bromophenyl)-6-hydroxy-benzothiophen-3-yl]oxyphenoxy]ethoxy]propoxy]propylamino]-1-oxo-isoindolin-2-yl]piperidine-2,6-dione]: at ERα [1], the 50% degradation concentration (DC50) is 1 to 10 nM and the Dmax fell in the range of 50 to 75%. Also, the IC50 at ERα [2] (setting [4]) was 4.8 nM.
In the case of `O=C1CCC(N2Cc3cc(N4CCC(CN5CC(c6ccc(Oc7c(-c8ccc(Br)cc8)sc8cc(O)ccc78)cc6)C5)CC4)ccc3C2=O)C(=O)N1` (centres unmarked) [Compound 216, 3-[5-[4-[[3-[4-[2-[4-bromophenyl)-6-hydroxy-benzothiophen-3-yl]oxyphenyl]azetidin-1-yl]methyl]-1-piperidyl]-1-oxo-isoindolin-2-yl]piperidine-2,6-dione], on ERα [1], the DC50 was in the range of 1 to 10 nM and the Dmax fell in the range of 50 to 75%. Also, on ERα [2] (setting [3]), the IC50 was found to be 2.7 nM.
On ERα [1], `O=C1CCC(N2C(=O)c3ccc(N4CCN(C5CCN(CCOc6ccc(Oc7c(-c8ccc(Br)cc8)sc8cc(O)ccc78)cc6)CC5)CC4)cc3C2=O)C(=O)N1` (centres unmarked) [Compound 183, 5-[4-[1-[2-[4-[2-(4-bromophenyl)-6-hydroxy-benzothiophen-3-yl]oxyphenoxy]ethyl]-4-piperidyl]piperazin-1-yl]-2-(2,6-dioxo-3-piperidyl)isoindoline-1,3-dione] returned a DC50 of 10 to 100 nM and a Dmax of 50 to 75%. The IC50 at ERα [2] (setting [3]) was 2.5 nM.
With `O=C1CCC(N2C(=O)c3ccc(N4CCN(CCOCc5ccc(Oc6c(-c7ccc(Br)cc7)sc7cc(O)ccc67)cc5)CC4)cc3C2=O)C(=O)N1` (centres unmarked) [Compound 225, 5-[4-[2-[[4-[2-(4-bromophenyl)-6-hydroxy-benzothiophen-3-yl]oxyphenyl]methoxy]ethyl]piperazin-1-yl]-2-(2,6-dioxo-3-piperidyl)isoindoline-1,3-dione], the greatest degradation seen (Dmax) at ERα [1] was less than 50%. In addition, the IC50 on ERα [2] (setting [3]) is 4.8 nM.
At ERα [1], `O=C1CCC(N2Cc3cc(N4CCN(CCCCc5ccc(Oc6c(-c7ccc(Br)cc7)sc7cc(O)ccc67)cc5)CC4)ccc3C2=O)C(=O)N1` (centres unmarked) [Compound 215, 3-[5-[4-[4-[4-[2-(4-bromophenyl)-6-hydroxybenzothiophen-3-yl]oxyphenyl]butyl]piperazin-1-yl]-1-oxo-isoindolin-2-yl]piperidine-2,6-dione] registered a DC50 of 1 to 10 nM and a Dmax of 50 to 75%. Moreover, on ERα [2] (setting [3]), the IC50 is 5.3 nM.
On the same counts, the results for `O=C1CCC(N2Cc3cc(N4CCN(CC5CCN(c6ccc(Oc7c(-c8ccc(F)cc8)sc8cc(O)ccc78)cc6)CC5)CC4)ccc3C2=O)C(=O)N1` (centres unmarked) [Compound 226, 3-[5-[4-[[1-[4-[2-(4-fluorophenyl)-6-hydroxy-benzothiophen-3-yl]oxyphenyl]-4-piperidyl]methyl]piperazin-1-yl]-1-oxo-isoindolin-2-yl]piperidine-2,6-dione] are 1 to 10 nM, more than 75% and 1.2 nM.
Take `O=C1CCC(N2Cc3c(ccc(N4CCN(C5CCN(CCOc6ccc(Oc7c(-c8ccc(C(F)(F)F)cc8)sc8cc(O)ccc78)cc6)CC5)CC4)c3F)C2=O)C(=O)N1` (centres unmarked) [Compound 193, 3-[4-fluoro-5-[4-[1-[2-[4-[6-hydroxy-2-[4-(trifluoromethyl)phenyl]benzothiophen-3-yl]oxyphenoxy]ethyl]-4-piperidyl]piperazin-1-yl]-1-oxo-isoindolin-2-yl]piperidine-2,6-dione]: at ERα [1], the DC50 is 1 to 10 nM and the greatest degradation seen (Dmax) was more than 75%. Moreover, the IC50 on ERα [2] (setting [3]) was 9.8 nM.
On to `O=C1CCC(N2Cc3c(ccc(N4CCN(CC5CCN(CCOc6ccc(Oc7c(-c8ccc(C(F)(F)F)cc8)sc8cc(O)ccc78)cc6)CC5)CC4)c3F)C2=O)C(=O)N1` (centres unmarked) [Compound 201, 3-[4-fluoro-5-[4-[[1-[2-[4-[6-hydroxy-2-[4-(trifluoromethyl)phenyl]benzothiophen-3-yl]oxyphenoxy]ethyl]-4-piperidyl]methyl]piperazin-1-yl]-1-oxo-isoindolin-2-yl]piperidine-2,6-dione], for which, at ERα [1], the DC50 lay in the range of 10 to 100 nM and the Dmax was more than 75%. In addition, on ERα [2] (setting [3]), the IC50 came to 8.4 nM.
In the case of `O=C1CCC(N2Cc3cc(N4CCN(CC5CCN(c6ccc(Oc7c(-c8ccc(Br)cc8)sc8cc(O)ccc78)cn6)CC5)CC4)ccc3C2=O)C(=O)N1` (centres unmarked) [Compound 236, 3-[5-[4-[[1-[5-[2-(4-bromophenyl)-6-hydroxy-benzothiophen-3-yl]oxy-2-pyridyl]-4-piperidyl]methyl]piperazin-1-yl]-1-oxo-isoindolin--2-yl]piperidine-2,6-dione], on ERα [1], the DC50 was 1 to 10 nM and the Dmax is more than 75%. In addition, the IC50 at ERα [2] (setting [3]) was 4.9 nM.
At ERα [1], `O=C1CCC(N2Cc3cc(NCCCN4CCCN(CCOc5ccc(Oc6c(-c7ccc(Br)cc7)sc7cc(O)ccc67)cc5)CC4)ccc3C2=O)C(=O)N1` (centres unmarked) [Compound 74, 3-(5-(3-(4-(2-(4-(2-(4-bromophenyl)-6-hydroxybenzo[b]thiophen-3-yloxy)phenoxy)ethyl)-1,4-diazepan-1-yl)propylamino)-1-oxoisoindolin-2-yl)piperidine-2,6-dione] had a DC50 of 1 to 10 nM and a Dmax of more than 75%. Besides, the IC50 at ERα [2] (setting [4]) came to 11 nM.
At ERα [1], `O=C1CCC(N2Cc3cc(N4CCN(C5CC(Oc6ccc(Oc7c(-c8ccc(Br)cc8)sc8cc(O)ccc78)cc6)C5)CC4)ccc3C2=O)C(=O)N1` (centres unmarked) [Compound 224, 3-[5-[4-[3-[4-[2-(4-bromophenyl)-6-hydroxy-benzothiophen-3-yl]oxyphenoxy]cyclobutyl]piperazin-1-yl]-1-oxo-isoindolin-2-yl]piperidine-2,6-dione] registered a DC50 of 1 to 10 nM and a Dmax of 50 to 75%. Moreover, at ERα [2] (setting [3]), the IC50 is 7.7 nM.
The corresponding values for `O=C1CCC(N2Cc3cc(N4CCN(CC5CCN(c6ccc(Oc7c(-c8ccc(Br)cc8)sc8cc(O)ccc78)cc6)CC5)CC4)ccc3C2=O)C(=O)N1` (centres unmarked) [Compound 231, 3-[5-[4-[[1-[4-[2-(4-bromophenyl)-6-hydroxy-benzothiophen-3-yl]oxyphenyl]-4-piperidyl]methyl]piperazin-1-yl]-1-oxo-isoindolin-2-yl]piperidine-2,6-dione] are 1 to 10 nM, 50 to 75% and 7.1 nM.
